# Species: Rattus norvegicus
# Assay: DrugMatrix - Regimen: Daily Repeat
# Type: toxicity, organism-based, Sprague-Dawley
# Set-up: regimen Daily Repeat, gender Male, age 6-8 weeks
# Settings: in vivo, po, route oral GAVAGE, vehicle .5 % CMC; for ABSOLUTE BASOPHIL / ABSOLUTE EOSINOPHIL / ABSOLUTE LYMPHOCYTE / ABSOLUTE MONOCYTE / ABSOLUTE SEGMENTED NEUTROPHIL / BASOPHIL / EOSINOPHIL / ERYTHROCYTE COUNT / HEMATOCRIT / HEMOGLOBIN / LEUKOCYTE COUNT / LYMPHOCYTE / MEAN CORPUSCULAR HEMOGLOBIN / MEAN CORPUSCULAR HEMOGLOBIN CONCENTRATION / MEAN CORPUSCULAR VOLUME / MONOCYTE / NEUTROPHIL / NUCLEATED RED BLOOD CELLS / PLATELET COUNT: tissue Blood; for ALANINE AMINOTRANSFERASE / ALBUMIN / ALKALINE PHOSPHATASE / ASPARTATE AMINOTRANSFERASE / BLOOD UREA NITROGEN / CARBON DIOXIDE / CHLORIDE / CHOLESTEROL / CREATINE PHOSPHOKINASE / CREATININE / GLUCOSE / LACTATE DEHYDROGENASE / LIPASE / PHOSPHORUS / POTASSIUM / SODIUM / TOTAL BILIRUBIN / TOTAL PROTEIN / URIC ACID: tissue Plasma
# [1] = 2000 mg/kg, 120 h, dose level High, time 5 day
# [2] = […], 72 h, dose 9.5 mg/Kg, dose level Low, time 3 day
# [3] = […], 120 h, dose 9.5 mg/Kg, dose level Low, time 5 day
structure (smiles),measurement,setting,value
O=C1Nc2ccc(Cl)cc2C(c2ccccc2Cl)=NC1O (centres undefined) [LORAZEPAM],ABSOLUTE BASOPHIL,[1],0 CELLS/uL
same,ABSOLUTE EOSINOPHIL,[1],0 CELLS/uL
same,ABSOLUTE LYMPHOCYTE,[1],9298.5 CELLS/uL
same,ABSOLUTE MONOCYTE,[1],148 CELLS/uL
same,ABSOLUTE SEGMENTED NEUTROPHIL,[1],903.5 CELLS/uL
same,BASOPHIL,[1],0%
same,EOSINOPHIL,[1],0%
same,ERYTHROCYTE COUNT,[1],6.25 x10E6/uL
same,HEMATOCRIT,[1],36.95%
same,HEMOGLOBIN,[1],14.95 G/DL
same,LEUKOCYTE COUNT,[1],10.35 x10E3/uL
same,LYMPHOCYTE,[1],89%
same,MEAN CORPUSCULAR HEMOGLOBIN,[1],23.95 pg
same,MEAN CORPUSCULAR HEMOGLOBIN CONCENTRATION,[1],40.5 G/DL
same,MEAN CORPUSCULAR VOLUME,[1],59.1 fL
same,MONOCYTE,[1],1.5%
same,NEUTROPHIL,[1],9.5%
same,NUCLEATED RED BLOOD CELLS,[1],0 /100WBC
same,PLATELET COUNT,[1],1267 x10E3/uL
same,ALANINE AMINOTRANSFERASE,[1],64.5 u/L
same,ALBUMIN,[1],4.15 G/DL
same,ALKALINE PHOSPHATASE,[1],283.5 u/L
same,ASPARTATE AMINOTRANSFERASE,[1],92 u/L
same,BLOOD UREA NITROGEN,[1],21.5 mg/dL
same,CARBON DIOXIDE,[1],29.5 mmol/L
same,CHLORIDE,[1],100.5 MEQ/L
same,CHOLESTEROL,[1],76.5 mg/dL
same,CREATINE PHOSPHOKINASE,[1],814 u/L
same,CREATININE,[1],0.18 mg/dL
same,GLUCOSE,[1],150.5 mg/dL
same,LACTATE DEHYDROGENASE,[1],206 u/L
same,LIPASE,[1],17.5 u/L
same,PHOSPHORUS,[1],8.55 mg/dL
same,POTASSIUM,[1],5.62 MEQ/L
same,SODIUM,[1],145.4 MEQ/L
same,TOTAL BILIRUBIN,[1],0.1 mg/dL
same,TOTAL PROTEIN,[1],6.2 G/DL
same,URIC ACID,[1],0.65 mg/dL
same,ABSOLUTE BASOPHIL,[2],0 CELLS/uL
same,ABSOLUTE EOSINOPHIL,[2],223.33 CELLS/uL
same,ABSOLUTE LYMPHOCYTE,[2],14276.33 CELLS/uL
same,ABSOLUTE MONOCYTE,[2],155.67 CELLS/uL
same,ABSOLUTE SEGMENTED NEUTROPHIL,[2],1244.67 CELLS/uL
same,BASOPHIL,[2],0%
same,EOSINOPHIL,[2],1.33%
same,ERYTHROCYTE COUNT,[2],5.67 x10E6/uL
same,HEMATOCRIT,[2],36.03%
same,HEMOGLOBIN,[2],13.93 G/DL
same,LEUKOCYTE COUNT,[2],15.9 x10E3/uL
same,LYMPHOCYTE,[2],89.67%
same,MEAN CORPUSCULAR HEMOGLOBIN,[2],24.57 pg
same,MEAN CORPUSCULAR HEMOGLOBIN CONCENTRATION,[2],38.67 G/DL
same,MEAN CORPUSCULAR VOLUME,[2],63.57 fL
same,MONOCYTE,[2],1%
same,NEUTROPHIL,[2],8%
same,NUCLEATED RED BLOOD CELLS,[2],0 /100WBC
same,PLATELET COUNT,[2],1298 x10E3/uL
same,ALANINE AMINOTRANSFERASE,[2],70 u/L
same,ALBUMIN,[2],4.33 G/DL
same,ALKALINE PHOSPHATASE,[2],451.67 u/L
same,ASPARTATE AMINOTRANSFERASE,[2],99.67 u/L
same,BLOOD UREA NITROGEN,[2],17.33 mg/dL
same,CARBON DIOXIDE,[2],24 mmol/L
same,CHLORIDE,[2],102.67 MEQ/L
same,CHOLESTEROL,[2],65.67 mg/dL
same,CREATINE PHOSPHOKINASE,[2],485.67 u/L
same,CREATININE,[2],0.22 mg/dL
same,GLUCOSE,[2],158 mg/dL
same,LACTATE DEHYDROGENASE,[2],594 u/L
same,LIPASE,[2],11 u/L
same,PHOSPHORUS,[2],10.17 mg/dL
same,POTASSIUM,[2],6.03 MEQ/L
same,SODIUM,[2],142.63 MEQ/L
same,TOTAL BILIRUBIN,[2],0.13 mg/dL
same,TOTAL PROTEIN,[2],5.93 G/DL
same,URIC ACID,[2],1.43 mg/dL
same,ABSOLUTE BASOPHIL,[3],0 CELLS/uL
same,ABSOLUTE EOSINOPHIL,[3],0 CELLS/uL
same,ABSOLUTE LYMPHOCYTE,[3],12357 CELLS/uL
same,ABSOLUTE MONOCYTE,[3],82 CELLS/uL
same,ABSOLUTE SEGMENTED NEUTROPHIL,[3],461 CELLS/uL
same,BASOPHIL,[3],0%
same,EOSINOPHIL,[3],0%
same,ERYTHROCYTE COUNT,[3],6.11 x10E6/uL
same,HEMATOCRIT,[3],37.87%
same,HEMOGLOBIN,[3],14.63 G/DL
same,LEUKOCYTE COUNT,[3],12.9 x10E3/uL
same,LYMPHOCYTE,[3],95.67%
same,MEAN CORPUSCULAR HEMOGLOBIN,[3],23.97 pg
same,MEAN CORPUSCULAR HEMOGLOBIN CONCENTRATION,[3],38.63 G/DL
same,MEAN CORPUSCULAR VOLUME,[3],62.07 fL
same,MONOCYTE,[3],0.67%
same,NEUTROPHIL,[3],3.67%
same,NUCLEATED RED BLOOD CELLS,[3],0 /100WBC
same,PLATELET COUNT,[3],1313 x10E3/uL
same,ALANINE AMINOTRANSFERASE,[3],62 u/L
same,ALBUMIN,[3],4.13 G/DL
same,ALKALINE PHOSPHATASE,[3],373.33 u/L
same,ASPARTATE AMINOTRANSFERASE,[3],87.67 u/L
same,BLOOD UREA NITROGEN,[3],12 mg/dL
same,CARBON DIOXIDE,[3],25 mmol/L
same,CHLORIDE,[3],104.33 MEQ/L
same,CHOLESTEROL,[3],26.67 mg/dL
same,CREATINE PHOSPHOKINASE,[3],550.33 u/L
same,CREATININE,[3],0.15 mg/dL
same,GLUCOSE,[3],136.33 mg/dL
same,LACTATE DEHYDROGENASE,[3],527.67 u/L
same,LIPASE,[3],9.33 u/L
same,PHOSPHORUS,[3],10.97 mg/dL
same,POTASSIUM,[3],6.04 MEQ/L
same,SODIUM,[3],143.63 MEQ/L
same,TOTAL BILIRUBIN,[3],0.13 mg/dL
same,TOTAL PROTEIN,[3],5.8 G/DL
same,URIC ACID,[3],1.67 mg/dL
